Conditions: for mass density: Vibrating tube method; for vapor or sublimation pressure: Closed cell (Static) method

FC(F)=C(F)C(F)(F)F [hexafluoropropene]
Conditions | mass density [kg/m3]
303.36 K, 1884.5 kPa, Liquid | 1299.72
303.36 K, 1906.2 kPa, Liquid | 1300.05
303.36 K, 1950 kPa, Liquid | 1300.59
303.36 K, 1985.6 kPa, Liquid | 1301.03
303.36 K, 2016.6 kPa, Liquid | 1301.15
303.36 K, 2051.2 kPa, Liquid | 1301.63
303.36 K, 2084.4 kPa, Liquid | 1301.95
303.36 K, 2119.1 kPa, Liquid | 1302.35
303.36 K, 2170.3 kPa, Liquid | 1302.96
303.36 K, 2204.1 kPa, Liquid | 1303.24
303.36 K, 2239.2 kPa, Liquid | 1303.63
303.36 K, 2326 kPa, Liquid | 1304.46
303.36 K, 2359.9 kPa, Liquid | 1304.86
303.36 K, 2392.6 kPa, Liquid | 1305.27
303.36 K, 2427 kPa, Liquid | 1305.54
303.36 K, 2445.1 kPa, Liquid | 1305.96
303.36 K, 2496.7 kPa, Liquid | 1306.19
303.36 K, 2513.8 kPa, Liquid | 1306.54
303.36 K, 2546.9 kPa, Liquid | 1306.82
303.36 K, 2585.2 kPa, Liquid | 1307.14
303.36 K, 2621.3 kPa, Liquid | 1307.6
303.36 K, 2688.6 kPa, Liquid | 1308.11
303.36 K, 2773.2 kPa, Liquid | 1309.07
303.36 K, 2808 kPa, Liquid | 1309.41
303.36 K, 2842.3 kPa, Liquid | 1309.71
303.36 K, 2874.3 kPa, Liquid | 1310.03
303.36 K, 2907.2 kPa, Liquid | 1310.3
303.36 K, 2940.3 kPa, Liquid | 1310.77
303.36 K, 3022.9 kPa, Liquid | 1311.53
303.36 K, 3048.7 kPa, Liquid | 1311.84
303.36 K, 3100.9 kPa, Liquid | 1312.32
303.36 K, 3125.6 kPa, Liquid | 1312.63
303.36 K, 3150.3 kPa, Liquid | 1312.98
303.36 K, 3176.4 kPa, Liquid | 1313.02
303.36 K, 3201.4 kPa, Liquid | 1313.32
303.36 K, 3226.8 kPa, Liquid | 1313.58
303.36 K, 3276.7 kPa, Liquid | 1313.98
303.36 K, 3325.1 kPa, Liquid | 1314.49
303.36 K, 3349.9 kPa, Liquid | 1314.75
303.36 K, 3375.9 kPa, Liquid | 1314.91
303.36 K, 3401.4 kPa, Liquid | 1315.17
303.36 K, 3428.7 kPa, Liquid | 1315.55
303.36 K, 3457.9 kPa, Liquid | 1315.79
303.36 K, 3482.4 kPa, Liquid | 1315.97
303.36 K, 3532.9 kPa, Liquid | 1316.48
303.36 K, 3636.8 kPa, Liquid | 1317.48
303.36 K, 3692 kPa, Liquid | 1318.07
303.36 K, 3744.5 kPa, Liquid | 1318.56
303.36 K, 3799.6 kPa, Liquid | 1319.05
303.36 K, 3852.6 kPa, Liquid | 1319.41
303.36 K, 3906.9 kPa, Liquid | 1319.99
303.36 K, 3959.3 kPa, Liquid | 1320.51
303.36 K, 4068.1 kPa, Liquid | 1321.53
303.36 K, 4117.4 kPa, Liquid | 1322.06
303.36 K, 4226.8 kPa, Liquid | 1323.01
303.36 K, 4279 kPa, Liquid | 1323.53
303.36 K, 4384.9 kPa, Liquid | 1324.43
303.36 K, 4442 kPa, Liquid | 1324.86
303.36 K, 4491.1 kPa, Liquid | 1325.26
303.36 K, 4545.1 kPa, Liquid | 1325.86
303.36 K, 4652.9 kPa, Liquid | 1326.85
303.36 K, 4706.2 kPa, Liquid | 1327.25
303.36 K, 4761.9 kPa, Liquid | 1327.67
303.36 K, 4810.6 kPa, Liquid | 1328.19
303.36 K, 4861.8 kPa, Liquid | 1328.62
303.36 K, 4913.7 kPa, Liquid | 1329.12
303.36 K, 4970 kPa, Liquid | 1329.46
303.36 K, 5017 kPa, Liquid | 1329.84
303.36 K, 5088.1 kPa, Liquid | 1330.55
303.36 K, 5216.5 kPa, Liquid | 1331.6
303.36 K, 5343.2 kPa, Liquid | 1332.68
303.36 K, 5408.2 kPa, Liquid | 1333.2
303.36 K, 5478.7 kPa, Liquid | 1333.8
303.36 K, 5540.7 kPa, Liquid | 1334.24
303.36 K, 5605.9 kPa, Liquid | 1334.94
303.36 K, 5666.1 kPa, Liquid | 1335.34
303.36 K, 5731.3 kPa, Liquid | 1335.77
303.36 K, 5921.6 kPa, Liquid | 1337.37
303.36 K, 5981.8 kPa, Liquid | 1337.85
303.36 K, 6042.7 kPa, Liquid | 1338.34
303.36 K, 6104.9 kPa, Liquid | 1338.9
303.36 K, 6169.9 kPa, Liquid | 1339.47
303.36 K, 6232.2 kPa, Liquid | 1339.84
303.36 K, 6297.1 kPa, Liquid | 1340.49
303.36 K, 6362 kPa, Liquid | 1340.92
303.36 K, 6487 kPa, Liquid | 1341.93
303.36 K, 6549.6 kPa, Liquid | 1342.5
303.36 K, 6613.9 kPa, Liquid | 1342.92
303.36 K, 6678.1 kPa, Liquid | 1343.42
303.36 K, 6742 kPa, Liquid | 1343.99
303.36 K, 6802.7 kPa, Liquid | 1344.44
303.36 K, 6864.7 kPa, Liquid | 1344.88
303.36 K, 6928 kPa, Liquid | 1345.36
303.36 K, 7053.8 kPa, Liquid | 1346.25
303.36 K, 7120.4 kPa, Liquid | 1346.76
303.36 K, 7184.3 kPa, Liquid | 1347.25
303.36 K, 7245.2 kPa, Liquid | 1347.73
303.36 K, 7308.5 kPa, Liquid | 1348.26
303.36 K, 7370.8 kPa, Liquid | 1348.64
303.36 K, 7436.1 kPa, Liquid | 1349.17
303.36 K, 7499.7 kPa, Liquid | 1349.66
303.36 K, 7563.6 kPa, Liquid | 1350.15
303.36 K, 7689.6 kPa, Liquid | 1351.05
303.36 K, 7751.3 kPa, Liquid | 1351.45
303.36 K, 7812.7 kPa, Liquid | 1351.9
303.36 K, 7879.7 kPa, Liquid | 1352.39
303.36 K, 7943 kPa, Liquid | 1352.95
303.36 K, 8005.8 kPa, Liquid | 1353.4
303.36 K, 8100.6 kPa, Liquid | 1353.99
303.36 K, 8290.6 kPa, Liquid | 1355.42
303.36 K, 8481.2 kPa, Liquid | 1356.76
303.36 K, 8578.2 kPa, Liquid | 1357.54
303.36 K, 8675.5 kPa, Liquid | 1358.15
303.36 K, 8768.5 kPa, Liquid | 1358.79
303.36 K, 8868.4 kPa, Liquid | 1359.47
303.36 K, 8967.8 kPa, Liquid | 1360.24
303.36 K, 9068.6 kPa, Liquid | 1360.85
303.36 K, 9168.1 kPa, Liquid | 1361.57
303.36 K, 9265.9 kPa, Liquid | 1362.22
303.36 K, 9367 kPa, Liquid | 1362.91
303.36 K, 9568.1 kPa, Liquid | 1364.22
303.36 K, 9667.3 kPa, Liquid | 1364.9
303.36 K, 9768.6 kPa, Liquid | 1365.55
303.36 K, 9865.8 kPa, Liquid | 1366.04
303.36 K, 9961.4 kPa, Liquid | 1366.81
303.36 K, 9992.6 kPa, Liquid | 1366.98
323.21 K, 7 kPa, Fluid (supercritical or subcritical phases) | 0.29
323.21 K, 10.8 kPa, Fluid (supercritical or subcritical phases) | 0.58
323.21 K, 14.3 kPa, Fluid (supercritical or subcritical phases) | 0.86

Liquid
Conditions | vapor or sublimation pressure [kPa]
308.21 K | 963.4
313.21 K | 1099.9
318.22 K | 1250.6
323.2 K | 1413.5

Source: the NIST ThermoML archive (doi:10.1021/je900596d)
